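In this assay, cells in 96-well plates receive the compound at five concentrations for 48 hours. Endpoints are linearly interpolated between the surrounding concentrations. GI50 marks 50% less growth.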 Calls of active or inactive are those of the source. No stated cut-off is given here; in the data, active = GI50 up to about 1.1 µM and inactive = higher.
Key:
Experiment in all cases: NCI anticancer screen, dose series, 48 h
M14 = tested on: M14
SNB-19 = tested on: SNB-19
MDA-MB-435 = tested on: MDA-MB-435
786-0 = tested on: 786-0
UACC-62 = tested on: UACC-62
OVCAR-4 = tested on: OVCAR-4
SF-539 = tested on: SF-539
SW-620 = tested on: SW-620
RPMI-8226 = tested on: RPMI-8226
MDA-MB-231 = tested on: MDA-MB-231
MDA-N = tested on: MDA-N
HCC 2998 = tested on: HCC 2998
HCT-15 = tested on: HCT-15
SK-MEL-5 = tested on: SK-MEL-5
U-251 = tested on: U-251
MCF7 = tested on: MCF7
SN12C = tested on: SN12C
HCT-116 = tested on: HCT-116

Row | SMILES | GI50 (M14) | GI50 (SNB-19) | GI50 (MDA-MB-435) | GI50 (786-0) | GI50 (UACC-62) | GI50 (OVCAR-4) | GI50 (SF-539) | GI50 (SW-620) | GI50 (RPMI-8226) | GI50 (MDA-MB-231) | GI50 (MDA-N) | GI50 (HCC 2998) | GI50 (HCT-15) | GI50 (SK-MEL-5) | GI50 (U-251) | GI50 (MCF7) | GI50 (SN12C) | GI50 (HCT-116)
1 | O=[N+]([O-])c1cc2oc(CSc3ccccc3)nc2cc1Cl | 32.9 µM (inactive) | 45.1 µM (inactive) | 32.4 µM (inactive) | 34.6 µM (inactive) | 36.2 µM (inactive) | 34.4 µM (inactive) | 32.7 µM (inactive) | 43.9 µM (inactive) | 40.9 µM (inactive) | 32.2 µM (inactive) | 35 µM (inactive) | 23.5 µM (inactive) | 19.2 µM | 16.6 µM (inactive) | 23.6 µM (inactive) | 42.8 µM (inactive) | 29.9 µM (inactive) | 29.4 µM (inactive)
2 | CC[C@@H](/C=C\CCC(=O)C[C@H](O)CCC=C(C)C)O[Si](C(C)C)(C(C)C)C(C)C | > 100 µM (inactive) | > 100 µM (inactive) | > 100 µM (inactive) | > 100 µM (inactive) | > 100 µM (inactive) | > 100 µM (inactive) | > 100 µM (inactive) | > 100 µM (inactive) | 57.3 µM (inactive) | > 100 µM (inactive) | 88.9 µM (inactive) | > 100 µM (inactive) | > 100 µM | 69 µM (inactive) | > 100 µM (inactive) | 79.4 µM (inactive) | > 100 µM (inactive) | > 100 µM (inactive)
3 | Cc1c(N/C=C(\C#N)C(=O)c2ccc(Cl)cc2)c(=O)n(-c2ccccc2)n1C | > 100 µM (inactive) | > 100 µM (inactive) | 34.9 µM (inactive) | > 100 µM (inactive) | 59.3 µM (inactive) | > 100 µM (inactive) | > 100 µM (inactive) | 90.4 µM (inactive) | 34.6 µM (inactive) | > 100 µM (inactive) | > 100 µM (inactive) | > 100 µM (inactive) | > 100 µM | 66.7 µM (inactive) | > 100 µM (inactive) | 62.1 µM (inactive) | > 100 µM (inactive) | 80.7 µM (inactive)
4 | Cc1ccc(OCC2OC(n3cnc4c(Cl)nc(N)nc43)CC2Oc2ccc(C)cc2)cc1 (stereo not drawn) | 9.27 µM (inactive) | 38 µM (inactive) | > 57.1 µM (inactive) | 55.5 µM (inactive) | > 63.5 µM (inactive) | 21.4 µM (inactive) | > 55.7 µM (inactive) | > 55.3 µM (inactive) | 33 µM (inactive) | 22.4 µM (inactive) | 7.93 µM (inactive) | 24.4 µM (inactive) | 31 µM | 30.9 µM (inactive) | > 55.6 µM (inactive) | 2.75 µM (inactive) | 10.4 µM (inactive) | 47.5 µM (inactive)
5 | CN(C)C(=O)N1N[C@H](c2ccccc2)[C@@H]1c1ccccc1 | > 100 µM (inactive) | > 100 µM (inactive) | > 100 µM (inactive) | > 100 µM (inactive) | > 100 µM (inactive) | > 100 µM (inactive) | > 100 µM (inactive) | > 100 µM (inactive) | > 100 µM (inactive) | > 100 µM (inactive) | > 100 µM (inactive) | > 100 µM (inactive) | > 100 µM | > 100 µM (inactive) | > 100 µM (inactive) | > 100 µM (inactive) | > 100 µM (inactive) | > 100 µM (inactive)
6 | CC1=C(O)C(=O)C[C@]2(C)[C@H]3CC=C4[C@@H]5CC(C)(C)CC[C@@H]5C(=O)[C@H](O)[C@@]4(C)[C@]3(C)CC[C@@H]12 | > 50 µM (inactive) | > 50 µM (inactive) | > 50 µM (inactive) | 19.1 µM (inactive) | > 50 µM (inactive) | 40.4 µM (inactive) | 2.8 µM (inactive) | > 50 µM (inactive) | 42.5 µM (inactive) | > 50 µM (inactive) | 47.3 µM (inactive) | 20.4 µM (inactive) | > 50 µM | 34.8 µM (inactive) | 27.5 µM (inactive) | > 50 µM (inactive) | > 50 µM (inactive) | > 50 µM (inactive)
7 | Cc1cc(=O)oc2cc(OS(C)(=O)=O)ccc12 | > 100 µM (inactive) | > 100 µM (inactive) | > 100 µM (inactive) | > 100 µM (inactive) | > 100 µM (inactive) | > 100 µM (inactive) | > 100 µM (inactive) | > 100 µM (inactive) | > 100 µM (inactive) | > 100 µM (inactive) | > 100 µM (inactive) | > 100 µM (inactive) | > 100 µM | > 100 µM (inactive) | > 100 µM (inactive) | > 100 µM (inactive) | > 100 µM (inactive) | > 100 µM (inactive)
8 | O=C1c2ccccc2C2(c3ccc(Cl)cc3)N[C@@H]3CCCC[C@@H]3N12 (stereo partly drawn) | > 100 µM (inactive) | > 100 µM (inactive) | > 100 µM (inactive) | > 100 µM (inactive) | > 100 µM (inactive) | > 100 µM (inactive) | > 100 µM (inactive) | > 100 µM (inactive) | > 100 µM (inactive) | > 100 µM (inactive) | > 100 µM (inactive) | > 100 µM (inactive) | > 100 µM | > 100 µM (inactive) | > 100 µM (inactive) | > 100 µM (inactive) | > 100 µM (inactive) | > 100 µM (inactive)
9 | CCOc1ccc2c(C)cc(=O)oc2c1 | > 100 µM (inactive) | > 100 µM (inactive) | > 100 µM (inactive) | > 100 µM (inactive) | > 100 µM (inactive) | > 100 µM (inactive) | > 100 µM (inactive) | > 100 µM (inactive) | > 100 µM (inactive) | > 100 µM (inactive) | > 100 µM (inactive) | > 100 µM (inactive) | > 100 µM | > 100 µM (inactive) | > 100 µM (inactive) | > 100 µM (inactive) | > 100 µM (inactive) | > 100 µM (inactive)
10 | CC(C)(C)OC(=O)c1ccc(NCc2cc(O)ccc2O)cc1 | 1.94 µM (inactive) | 8.07 µM (inactive) | 2.96 µM (inactive) | 2.32 µM (inactive) | 7.16 µM (inactive) | 1.75 µM (inactive) | 1.22 µM (inactive) | 3.36 µM (inactive) | 0.617 µM (active) | 2.31 µM (inactive) | 3.31 µM (inactive) | 7.36 µM (inactive) | 1.32 µM | 3.65 µM (inactive) | 1.95 µM (inactive) | 3.61 µM (inactive) | 1.27 µM (inactive) | 3.49 µM (inactive)
11 | CN1C/C(=C\c2cccs2)C2=NN(c3ccccc3)C(c3cccs3)C2C1 (stereo not drawn) | 3.91 µM (inactive) | 5.93 µM (inactive) | 1.61 µM (inactive) | 3.49 µM (inactive) | > 100 µM (inactive) | 4.47 µM (inactive) | 17.4 µM (inactive) | 4.6 µM (inactive) | 3.59 µM (inactive) | 21.9 µM (inactive) | 1.59 µM (inactive) | 6.21 µM (inactive) | 3.78 µM | 11.9 µM (inactive) | 12 µM (inactive) | 13.3 µM (inactive) | 4.39 µM (inactive) | 2.7 µM (inactive)
12 | O=C(/C=C\c1ccccc1)Oc1ccc(/C=C2\CCCCC2=O)cc1 | 40.6 µM (inactive) | > 100 µM (inactive) | 26.8 µM (inactive) | 37.4 µM (inactive) | 0.1 µM (active) | > 100 µM (inactive) | 28.7 µM (inactive) | 40.3 µM (inactive) | 21.5 µM (inactive) | 41.6 µM (inactive) | 33.3 µM (inactive) | 47.3 µM (inactive) | 23.3 µM | 18.9 µM (inactive) | 30.4 µM (inactive) | 39.5 µM (inactive) | 55.3 µM (inactive) | 26.1 µM (inactive)
13 | NC(=O)NC(=O)c1cccc(C(=O)NC(N)=O)n1 | > 100 µM (inactive) | > 100 µM (inactive) | > 100 µM (inactive) | > 100 µM (inactive) | > 100 µM (inactive) | > 100 µM (inactive) | > 100 µM (inactive) | > 100 µM (inactive) | > 100 µM (inactive) | > 100 µM (inactive) | > 100 µM (inactive) | > 100 µM (inactive) | > 100 µM | > 100 µM (inactive) | > 100 µM (inactive) | > 100 µM (inactive) | > 100 µM (inactive) | > 100 µM (inactive)
14 | COc1ccccc1C(=O)c1c(NCc2ccccc2)c(=O)c1=O | > 100 µM (inactive) | > 100 µM (inactive) | > 100 µM (inactive) | 40.2 µM (inactive) | > 100 µM (inactive) | > 100 µM (inactive) | 0.0841 µM (active) | 18.2 µM (inactive) | 32.9 µM (inactive) | > 100 µM (inactive) | > 100 µM (inactive) | > 100 µM (inactive) | 27.4 µM | > 100 µM (inactive) | 66.4 µM (inactive) | 0.0254 µM (active) | > 100 µM (inactive) | > 100 µM (inactive)
15 | CC1=CC=C2c3ccccc3C=CN2C(=O)C1 | 62.1 µM (inactive) | 70.5 µM (inactive) | 34.8 µM (inactive) | 60.7 µM (inactive) | 84.9 µM (inactive) | > 100 µM (inactive) | 73.8 µM (inactive) | 49.8 µM (inactive) | 25.7 µM (inactive) | 40.5 µM (inactive) | 37.2 µM (inactive) | 56.6 µM (inactive) | 45.9 µM | 22.1 µM (inactive) | 60.4 µM (inactive) | 45.3 µM (inactive) | 63.5 µM (inactive) | 40.8 µM (inactive)
16 | COc1ccc2cc3c4cc5c(cc4cc[n+]3cc2c1OC)OCO5 | 15.2 µM (inactive) | 3.15 µM (inactive) | 6.95 µM (inactive) | 10.2 µM (inactive) | 12.3 µM (inactive) | 20.6 µM (inactive) | 11.4 µM (inactive) | 5.27 µM (inactive) | 8.13 µM (inactive) | 23.4 µM (inactive) | 7.52 µM (inactive) | 22 µM (inactive) | 83.2 µM | 3.39 µM (inactive) | 0.615 µM (active) | 20 µM (inactive) | 2.52 µM (inactive) | 15.1 µM (inactive)
